Source: patent US12630719B2, “Fluorescent acridinium salts, synthesis thereof and use for detection of cardiolipin” (LATVIAN INSTITUTE OF ORGANIC SYNTHESIS, priority 2019, dated 2026)

What was measured:
[1] = Photo-physical properties in aqueous HEPES buffer solution; format: physicochemical; settings: aqueous HEPES buffer 20 mM, pH 7.4
Description: Photo-physical properties of I-1-I-5 was measured in aqueous HEPES [4-(2-hydroxyethyl)piperazine-1-ethanesulfonic acid] buffer solution (20 mM, pH 7.4); NAO bromide was used as reference compound. Similar to NAO, derivatives I-1-I-5 have absorption maxima at 494-498 nm, and emission maxima at 528-529 nm (Table 1). […] Moreover, the trimethylsilylpropyl substituent in position 10 improved PLQY up to 60.7% (I-5). […] The introduction of longer alkyl chains such as nonyl and dodecyl led to PLQY decrease.

[2] = Stability of fluorescence during experiments; format: physicochemical; settings: in 30 minutes
Excerpt: (§1) Besides, NAO fluorescence intensity loss during interaction of DOPC was detected at 5.6% level.

[3] = Fluorescence intensity on interaction with CL/DOPC liposomes; format: binding; settings: for fluorescence intensity after interaction with CL/DOPC liposomes: CL/DOPC liposomes (3:1), end value of the drop; for fluorescence intensity before interaction with CL/DOPC liposomes: start value of the drop
Description: (§2) Liposomes preparation. Vesicles were prepared by classic thin film method. […] Obtained large multilamellar liposomes were sonicated in a bath-type sonicator at room temperature for 30 min following by extrusion through a 100 nm polycarbonate filter for 21 times. The quality of the resulting small unilamellar vesicles was monitored by dynamic light scattering (DLS) technique. These stock solutions were diluted 5-fold to acquire 2nd stock solutions that were used in the fluorometric experiments.

[4] = Fluorescence intensity in the presence of DOPC liposomes without cardiolipin (selectivity); format: binding
Description: as §1, §2

[5] = Titration with cardiolipin, linear regression curve; format: binding
Description: as §2

[6] = decrease of green fluorescence in the presence of CL; cited from earlier work

SMILES	Φ (PLQY, photoluminescence quantum yield) [1] [%]	λabs [1] [nm]	λem [1] [nm]	fluorescence intensity drop during experiments [2]	fluorescence intensity after interaction with CL/DOPC liposomes [3] [a.u.]	fluorescence intensity before interaction with CL/DOPC liposomes [3] [a.u.]	fluorescence intensity drop in the presence of DOPC liposomes [4] [%]	linear slope of the titration curve [5]	CL content that can be quantitatively analyzed [6] [µM]
C[n+]1c2cc(N3CCC3)ccc2cc2ccc(N3CCC3)cc21.[I-] [Compound I-1, 3,6-di(azetidin-1-yl)-10-methylacridin-10-ium iodide]	59.9	497	529	–	–	–	–	–	–
CCCCCCCCCCCC[n+]1c2cc(N3CCC3)ccc2cc2ccc(N3CCC3)cc21.[I-] [Compound I-4, 3,6-di(azetidin-1-yl)-10-dodecylacridin-10-ium iodide]	16.1	494	528	–	–	–	–	–	–
[2H]C([2H])([2H])[n+]1c2cc(N3CCC3)ccc2cc2ccc(N3CCC3)cc21.[I-] [Compound I-2, 3,6-di(azetidin-1-yl)-10-(methyl-d3)acridin-10-ium iodide]	61.5	497	529	–	–	–	–	–	–
C[Si](C)(C)CCC[n+]1c2cc(N3CCC3)ccc2cc2ccc(N3CCC3)cc21.[I-] [Compound I-5, 3,6-di(azetidin-1-yl)-10-(3-(trimethylsilyl)propyl)acridin-10-ium iodide]	60.7	497	529	remaining the same	6600	65800	7.7	−6259±250	–
CCCCCCCCC[n+]1c2cc(N(C)C)ccc2cc2ccc(N(C)C)cc21 [NAO, 10-N-nonyl acridine orange, reference compound]	15.5	498	528	15.5%	1260	13300	5.6	−1222±49	0.2 to 10
CCCCCCCCC[n+]1c2cc(N3CCC3)ccc2cc2ccc(N3CCC3)cc21.[I-] [Compound I-3, 3,6-di(azetidin-1-yl)-10-nonylacridin-10-ium iodide]	47.9	498	529	–	–	–	–	–	–
